Results published in patent publication US12570666B2, “Furoindazole derivatives” (Bayer Aktiengesellschaft, priority 2019, dated 2026).

Target: T1, human GPR84 receptor (Homo sapiens, UniProt Q9NQS5)
T1 construct: frozen aliquots prepared by acCELLerate; host or cells: CHO-K1
Assay: cAMP HTRF assay for identification of cellular GPR84 antagonists
Type: cell-based
Conditions: CHO-K1 cells stably expressing human GPR84; Forskolin + agonist 6-OAU (EC80); average or median values
Method in brief: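 IC50 came from 4-parameter fits over 20 μM–0.07 nM (11 points, duplicate), normalized between DMSO (0%) and agonist-free (100% inhibition) wells. Readout: cAMP-d2/Eu-cryptate HTRF in hGPR84 CHO-K1 cells given forskolin plus agonist, compound preincubated 30 min at room temperature.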

T1 sequence (Q9NQS5 whole entry): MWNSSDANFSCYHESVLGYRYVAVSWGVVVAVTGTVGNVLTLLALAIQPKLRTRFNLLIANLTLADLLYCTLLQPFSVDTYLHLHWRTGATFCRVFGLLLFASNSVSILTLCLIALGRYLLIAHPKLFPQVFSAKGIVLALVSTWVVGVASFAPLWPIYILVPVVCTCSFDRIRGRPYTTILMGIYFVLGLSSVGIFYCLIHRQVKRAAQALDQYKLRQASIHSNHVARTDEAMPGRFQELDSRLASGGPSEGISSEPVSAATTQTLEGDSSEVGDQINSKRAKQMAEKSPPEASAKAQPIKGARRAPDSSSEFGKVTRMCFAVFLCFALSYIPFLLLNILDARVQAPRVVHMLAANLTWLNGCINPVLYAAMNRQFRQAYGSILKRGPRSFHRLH

SMILES	IC50 [nM]
Cc1c(C(=O)NCc2cc(C3CC3)on2)oc2c1-c1nn(CC3COc4ncccc4O3)cc1CC2 (racemic) [Example 50, N-[(5-cyclopropyl-1,2-oxazol-3-yl)methyl]-2-[(2R/S)-2,3-dihydro[1,4]dioxino[2,3-b]pyridin-2-ylmethyl]-8-methyl-4,5-dihydro-2H-furo[2,3-g]indazole-7-carboxamide]	35
Cc1c(C(=O)NCC2CCO2)oc2c1-c1nn(Cc3ccccn3)cc1CC2 (single isomer, unassigned) [Example 35-1]	180
O=C(NC[C@@H]1COCCO1)c1oc2c(c1C(F)(F)F)-c1nn(Cc3ccncc3)cc1C1(CCC1)C2 [Example 281, N-[(2R)-1,4-Dioxan-2-ylmethyl]-2′-(pyridin-4-ylmethyl)-8′-(trifluormethyl)-2′,5′-dihydrospiro[cyclobutan-1,4′-furo[2,3-g]indazol]-7′-carboxamide]	21
Cc1c(C(=O)NCC2CCC(C)O2)oc2c1-c1nn(C[C@H]3COCCO3)cc1C1(CC1)C2 (mixture of isomers) [Example 198]	94
Cc1c(C(=O)NC[C@@H]2COCCO2)oc2c1-c1nn(Cc3ccncc3)cc1CC2 [Example 47, N-[(2R)-1,4-dioxan-2-ylmethyl]-8-methyl-2-(pyridin-4-ylmethyl)-4,5-dihydro-2H-furo[2,3-g]indazole-7-carboxamide]	19
Cc1c(C(=O)NC[C@@H]2CCCO2)oc2c1-c1nn(C[C@H]3CN(C)CCO3)cc1CC2 [Example 101, 8-methyl-2-{[(2R)-4-methylmorpholin-2-yl]methyl}-N-[(2S)-tetrahydrofuran-2-ylmethyl]-4,5-dihydro-2H-furo[2,3-g]indazole-7-carboxamide]	1540
Cc1ccc(Cn2cc3c(n2)-c2c(oc(C(=O)NC[C@@H]4CCCO4)c2C)CC3)c(C)n1 [Example 77, 2-[(2,6-dimethylpyridin-3-yl)methyl]-8-methyl-N-[(2S)-tetrahydrofuran-2-ylmethyl]-4,5-dihydro-2H-furo[2,3-g]indazole-7-carboxamide]	170
C[C@@H]1Cc2oc(C(=O)NC[C@@H]3CCCO3)c(C(F)(F)F)c2-c2nn(CC3CCN(C(=O)C4CC4)CC3)cc21 (single isomer, unassigned) [Example 290, (4R or 4S)-2-{[1-(cyclopropanecarbonyl)piperidin-4-yl]methyl}-4-methyl-N-{[(2S)-oxolan-2-yl]methyl}-8-(trifluoromethyl)-4,5-dihydro-2H-furo[2,3-g]indazole-7-carboxamide]	4
Cc1cnc(CNC(=O)c2oc3c(c2C(F)(F)F)-c2nn(C[C@H]4COCCO4)cc2[C@H](C)C3)cn1 (single isomer, unassigned) [Example 258, (4R or 4S)-2-{[(2S)-1,4-dioxan-2-yl]methyl}-4-methyl-N-[(5-methylpyrazin-2-yl)methyl]-8-(trifluoromethyl)-4,5-dihydro-2H-furo[2,3-g]indazole-7-carboxamide]	5
Cn1ccc(CNC(=O)c2oc3c(c2C(F)(F)F)-c2nn(Cc4ccccn4)cc2C2(CCC2)C3)n1 [Example 276, N-[(1-Methyl-1H-pyrazol-3-yl)methyl]-2′-(pyridin-2-ylmethyl)-8′-(trifluormethyl)-2′,5′-dihydrospiro[cyclobutan-1,4′-furo[2,3-g]indazol]-7′-carboxamide]	156
Cc1cccc(Cn2cc3c(n2)-c2c(oc(C(=O)NCC4CCCO4)c2C)CC3)n1 (single isomer, unassigned) [Example 66-1]	63
O=C(NCc1ncco1)c1oc2c(c1C(F)(F)F)-c1nn(Cc3ccccn3)cc1CC2 [Example 118, N-(1,3-oxazol-2-ylmethyl)-2-(pyridin-2-ylmethyl)-8-(trifluoromethyl)-4,5-dihydro-2H-furo[2,3-g]indazole-7-carboxamide]	24
Cc1c(C(=O)NC[C@@H]2COCCO2)oc2c1-c1nn(Cc3ncccc3Cl)cc1CC2 [Example 61, 2-[(3-chloropyridin-2-yl)methyl]-N-[(2R)-1,4-dioxan-2-ylmethyl]-8-methyl-4,5-dihydro-2H-furo[2,3-g]indazole-7-carboxamide]	20
C[C@@H]1Cc2oc(C(=O)NCc3cnccn3)c(C(F)(F)F)c2-c2nn(C[C@H]3COCCO3)cc21 (single isomer, unassigned) [Example 260, (4R or 4S)-2-{[(2S)-1,4-dioxan-2-yl]methyl}-4-methyl-N-[(pyrazin-2-yl)methyl]-8-(trifluoromethyl)-4,5-dihydro-2H-furo[2,3-g]indazole-7-carboxamide]	24
COc1cccc(-c2cc(CNC(=O)c3oc4c(c3C)-c3nn(Cc5ccccn5)cc3CC4)no2)c1 [Example 14, N-{[5-(3-methoxyphenyl)-1,2-oxazol-3-yl]methyl}-8-methyl-2-(pyridin-2-ylmethyl)-4,5-dihydro-2H-furo[2,3-g]indazole-7-carboxamide]	4790
O=C(NC[C@@H]1COCCO1)c1oc2c(c1C(F)(F)F)-c1nn(C[C@H]3COCCO3)cc1C1(CC1)C2 [Example 169, N-{[(2R)-1,4-dioxan-2-yl]methyl}-2′-{[(2S)-1,4-dioxan-2-yl]methyl}-8′-(trifluoromethyl)-2′,5′-dihydrospiro[cyclopropane-1,4′-furo[2,3-g]indazole]-7′-carboxamide]	13

Next, values leading:

IC50 [nM]	SMILES
47	Cc1c(C(=O)NC[C@@H]2COCCO2)oc2c1-c1nn(C[C@H]3COCCO3)cc1CC2 [Example 90, N-[(2R)-1,4-dioxan-2-ylmethyl]-2-[(2S)-1,4-dioxan-2-ylmethyl]-8-methyl-4,5-dihydro-2H-furo[2,3-g]indazole-7-carboxamide]
28	O=C(NC[C@@H]1COCCO1)c1oc2c(c1C(F)(F)F)-c1nn(Cc3ccccn3)cc1CC2 [Example 116, N-[(2R)-1,4-dioxan-2-ylmethyl]-2-(pyridin-2-ylmethyl)-8-(trifluoromethyl)-4,5-dihydro-2H-furo[2,3-g]indazole-7-carboxamide]
10	Cc1c(C(=O)NC[C@@H]2COCCO2)oc2c1-c1nn(CC3CN(C(=O)OC(C)(C)C)C3)cc1CC2 [Example 110, tert-butyl 3-[(7-{[(2R)-1,4-dioxan-2-ylmethyl]carbamoyl}-8-methyl-4,5-dihydro-2H-furo[2,3-g]indazol-2-yl)methyl]azetidine-1-carboxylate]
101	O=C(NC[C@@H]1CCCO1)c1oc2c(c1C(F)(F)F)-c1nn(CC3CCN(C(=O)c4ccccc4)CC3)cc1CC2 [Example 288, 2-[(1-benzoylpiperidin-4-yl)methyl]-N-{[(2S)-oxolan-2-yl]methyl}-8-(trifluoromethyl)-4,5-dihydro-2H-furo[2,3-g]indazole-7-carboxamide]
760	Cc1c(C(=O)NC[C@@H]2COCCO2)oc2c1-c1nn(C[C@H]3CN(C)CCO3)cc1CC2 [Example 102, N[(2R)-1,4-dioxan-2-ylmethyl]-8-methyl-2-{[(2R)-4-methylmorpholin-2-yl]methyl}-4,5-dihydro-2H-furo[2,3-g]indazole-7-carboxamide]
43	Cc1c(C(=O)NCc2ccon2)oc2c1-c1nn(CC3COc4ncccc4O3)cc1CC2 (single isomer, unassigned) [Example 55-2]
5070	Cc1c(C(=O)NCc2nnc[nH]2)oc2c1-c1nn(Cc3ccccn3)cc1CC2 [Example 20, 8-methyl-2-(pyridin-2-ylmethyl)-N-(4H-1,2,4-triazol-3-ylmethyl)-4,5-dihydro-2H-furo[2,3-g]indazole-7-carboxamide]
21	O=C(NC[C@@H]1COCCO1)c1oc2c(c1C(F)(F)F)-c1nn(CC3CCN(C(=O)C4CC4)CC3)cc1CC2 [Example 285, 2-{[1-(cyclopropanecarbonyl)piperidin-4-yl]methyl}-N-{[(2R)-1,4-dioxan-2-yl]methyl}-8-(trifluoromethyl)-4,5-dihydro-2H-furo[2,3-g]indazole-7-carboxamide]
170	Cc1c(C(=O)NCc2ccn(C)n2)oc2c1-c1nn(C[C@H]3COCCO3)cc1C1(CC1)C2 [Example 127, 2′-[(2S)-1,4-dioxan-2-ylmethyl]-8′-methyl-N-[(1-methyl-1H-pyrazol-3-yl)methyl]-2′,5′-dihydrospiro[cyclopropane-1,4′-furo[2,3-g]indazole]-7′-carboxamide]
17500	Cc1noc(C)c1CNC(=O)c1oc2c(c1C)-c1nn(Cc3ccccn3)cc1CC2 [Example 27, N-[(3,5-dimethyl-1,2-oxazol-4-yl)methyl]-8-methyl-2-(pyridin-2-ylmethyl)-4,5-dihydro-2H-furo[2,3-g]indazole-7-carboxamide]
51	CC1(C)CC[C@H](CNC(=O)c2oc3c(c2C(F)(F)F)-c2nn(C[C@H]4COCCO4)cc2CC3)O1 (single isomer, unassigned) [Example 223-2, N-{[(2S or 2R)-5,5-dimethyloxolan-2-yl]methyl}-2-{[(2S)-1,4-dioxan-2-yl]methyl}-8-(trifluoromethyl)-4,5-dihydro-2H-furo[2,3-g]indazole-7-carboxamide]
21	Cc1c(C(=O)NC[C@@H]2COCCO2)oc2c1-c1nn(CC3(C)COC3)cc1CC2 [Example 94, N-[(2R)-1,4-dioxan-2-ylmethyl]-8-methyl-2-[(3-methyloxetan-3-yl)methyl]-4,5-dihydro-2H-furo[2,3-g]indazole-7-carboxamide]
1960	Cc1c(C(=O)NC[C@@H]2COCCO2)oc2c1-c1nn(CC3CNC3)cc1CC2 [Example 159, 2-(azetidin-3-ylmethyl)-N-[(2R)-1,4-dioxan-2-ylmethyl]-8-methyl-4,5-dihydro-2H-furo[2,3-g]indazole-7-carboxamide]
139	COCC(=O)N1CCC(Cn2cc3c(n2)-c2c(oc(C(=O)NC[C@@H]4COCCO4)c2C(F)(F)F)CC3)CC1 [Example 283, N-{[(2R)-1,4-dioxan-2-yl]methyl}-2-{[1-(methoxyacetyl)piperidin-4-yl]methyl}-8-(trifluoromethyl)-4,5-dihydro-2H-furo[2,3-g]indazole-7-carboxamide]
